According to patent US20230146455A1, “TREATMENT OF INFLAMMATORY DISEASES WITH PEPTIDES AND PHARMACEUTICAL COMPOSITIONS” (Yuyu Pharma, Inc., priority 2020, published 2023):
Several values for one entry are separate records, joined by “and”; a condition that tells them apart may be missing. Identical values can stand only once. Where a SMILES comes first, the peptide text is derived from it. [ ]: non-standard residue; d: D form. Hyp = O=C(O)[C@@H]1C[C@@H](O)CN1

Tests used:
[1] = system: CCL2/MCP-1; test: Example 8 main study Luminex, LPS hPBMCs: CCL2/MCP-1; format: cell-based, human; settings: for CCL2/MCP-1 Concentration: single replicates
Protocol: (§1) Human PBMCs were pretreated with YY-101, YDE-011, YDE-043 or reference compound; Xiidra® at various concentration (ranging from […] to 500 nM) for 2 h before stimulation. An equal volume of 0.5% DMSO was used as a vehicle control. Then, the cells were treated with LPS at 5 ug/ml, which was selected based on the pilot study. The supernatants from treated cells were harvested at 24 h and placed in a 96 well for Luminex cytokine & chemokine profiling using a Luminex 200 multiplex assay (Luminex; R&D system, USA).
(§2) The main study arm with triplicate wells per group in a 24-well plate: • 1. Blank • 2. PBMC: 0.5% DMSO • 3. PBMC+LPS (5 ug/ml) • 4. PBMC+YY-101 500 nM • 5. PBMC+YY-101 50 nM • 6. PBMC+YY-101 5 nM • 7. PBMC+YY-101 0.5 nM • 8. PBMC+LPS (5 ug/ml)+Xiidra® 500 nM • 9. PBMC+LPS (5 ug/ml)+Xiidra® 50 nM • 10. PBMC+LPS (5 ug/ml)+Xiidra® 5 nM • 11. PBMC+LPS (5 ug/ml)+Xiidra® 0.5 nM • 12. PBMC+LPS (5 ug/ml)+Xiidra® 0.05 nM • 13. PBMC+LPS (5 ug/ml)+Xiidra® 0.005 nM • 14. PBMC+LPS (5 ug/ml)+YY-101 500 nM • 15. PBMC+LPS (5 ug/ml)+YY-101 50 nM • 16. PBMC+LPS (5 ug/ml)+YY-101 5 nM • 17. PBMC+LPS (5 ug/ml)+YY-101 0.5 nM • 18. PBMC+LPS (5 ug/ml)+YY-101 0.05 nM • 19. PBMC+LPS (5 ug/ml)+YY-101 0.005 nM • 20. PBMC+LPS (5 ug/ml)+YDE-011 500 nM • 21. PBMC+LPS (5 ug/ml)+YDE-011 50 nM • 22. PBMC+LPS (5 ug/ml)+YDE-011 5 nM • 23. PBMC+LPS (5 ug/ml)+YDE-011 0.5 nM • 24. PBMC+LPS (5 ug/ml)+YDE-011 0.05 nM • 25. PBMC+LPS (5 ug/ml)+YDE-011 0.005 nM • 26. PBMC+LPS (5 ug/ml)+YDE-043 500 nM • 27. PBMC+LPS (5 ug/ml)+YDE-043 50 nM • 28. PBMC+LPS (5 ug/ml)+YDE-043 5 nM • 29. PBMC+LPS (5 ug/ml)+YDE-043 0.5 nM • 30. PBMC+LPS (5 ug/ml)+YDE-043 0.05 nM • 31. PBMC+LPS (5 ug/ml)+YDE-043 0.005 nM
(§3) Multiplex assay was used to measure 30 cytokines and chemokines. The 1:200 diluted cell supernatant and serial dilution of the standard were dispensed into a 96 well plate at 50 ul/well. Then, the pre-mixed cocktail of antibody-coated magnetic beads was dispensed at 50 ul/well and incubated at room temperature for 2 h in a horizontal orbital microplate shaker at 800±500 rpm. The beads were washed using a magnetic device to prevent loss. The biotin-antibody was dispensed in 50 ul of each well and incubated at room temperature for 1 h in a shaker at 800±500 rpm. After washing, streptavidin-PE was added at 50 ul/well and incubated at room temperature for 30 min in a shaker under the same conditions. Finally, after washing, wash buffer (100 ul/well) was added to the plate and incubated in a shaker for 2 min. The Luminex™ 200 setting were set according to the manufacturer's protocol. The data was calculated with a standard five-parameter logistic nonlinear regression analysis of the data (xPonent software 4.2, USA). Results were presented as concentration (ng/ml or pg/ml).

[2] = system: IL-1 beta/IL-1F2; test: Example 8 main study Luminex, LPS hPBMCs: IL-1 beta/IL-1F2; format: cell-based, human
Protocol: as §1, §2, §3

[3] = PBMC + LPS(5 ug/ml) + YY101 0.005 nM
[4] = PBMC + LPS(5 ug/ml) + YY101 0.05 nM
[5] = PBMC + LPS(5 ug/ml) + YY101 0.5 nM
[6] = PBMC + LPS(5 ug/ml) + YY101 5 nM
[7] = PBMC + LPS(5 ug/ml) + YY101 50 nM
[8] = PBMC + LPS(5 ug/ml) + YY101 500 nM
[9] = PBMC + LPS(5 ug/ml) + test article 0.005 nM, Mean
[10] = PBMC + LPS(5 ug/ml) + test article 0.005 nM, individual replicates
[11] = PBMC + LPS(5 ug/ml) + test article 0.05 nM, Mean
[12] = PBMC + LPS(5 ug/ml) + test article 0.05 nM, individual replicates
[13] = PBMC + LPS(5 ug/ml) + test article 0.5 nM, Mean
[14] = PBMC + LPS(5 ug/ml) + test article 0.5 nM, individual replicates
[15] = PBMC + LPS(5 ug/ml) + test article 5 nM, Mean
[16] = PBMC + LPS(5 ug/ml) + test article 5 nM, individual replicates
[17] = PBMC + LPS(5 ug/ml) + test article 50 nM, Mean
[18] = PBMC + LPS(5 ug/ml) + test article 50 nM, individual replicates
[19] = PBMC + LPS(5 ug/ml) + test article 500 nM, Mean
[20] = PBMC + LPS(5 ug/ml) + test article 500 nM, individual replicates
[21] = PBMC + test article 0.5 nM, no LPS, Mean
[22] = PBMC + test article 0.5 nM, no LPS, individual replicates (1st, 2nd)
[23] = PBMC + test article 5 nM, no LPS, Mean
[24] = PBMC + test article 5 nM, no LPS, individual replicates (1st, 2nd)
[25] = PBMC + test article 0.05 uM, no LPS, Mean
[26] = PBMC + test article 0.05 uM, no LPS, individual replicates (1st, 2nd)
[27] = PBMC + test article 50 nM, no LPS, Mean
[28] = PBMC + test article 50 nM, no LPS, individual replicates (1st, 2nd)
[29] = PBMC + test article 500 nM, no LPS, Mean
[30] = PBMC + test article 500 nM, no LPS, individual replicates (1st, 2nd)

CC(C)C[C@H](NC(=O)CNC(=O)[C@H](CC(=O)O)NC(=O)[C@H](CCC(N)=O)NC(=O)CNC(=O)[C@@H]1C[C@@H](O)CN1)C(=O)N[C@@H](C)C(=O)NCC(=O)N1CCC[C@H]1C(=O)N[C@@H](CCCCN)C(=O)O [YY-101] (H-[Hyp]GQDGLAGPK-OH; N-terminus and C-terminus assumed)
CCL2/MCP-1 Concentration, Mean [1, 3]: 4528.1 pg/mL
CCL2/MCP-1 Concentration [1, 3]: 4528.4 pg/mL and 4630.2 pg/mL and 4425.5 pg/mL
CCL2/MCP-1 Concentration, Mean [1, 4]: 4596.0 pg/mL
CCL2/MCP-1 Concentration [1, 4]: 4528.4 pg/ml (2×) and 4731.0 pg/ml
CCL2/MCP-1 Concentration, Mean [1, 5]: 4596.3 pg/mL
CCL2/MCP-1 Concentration [1, 5]: 4630.2 pg/ml (2×) and 4528.4 pg/ml
CCL2/MCP-1 Concentration, Mean [1, 6]: 4629.9 pg/mL
CCL2/MCP-1 Concentration [1, 6]: 4630.2 pg/mL and 4528.4 pg/mL and 4731.0 pg/mL
CCL2/MCP-1 Concentration, Mean [1, 7]: 4613.3 pg/mL
CCL2/MCP-1 Concentration [1, 7]: 4579.5 pg/ml and 4630.2 pg/ml (2×)
CCL2/MCP-1 Concentration, Mean [1, 8]: 4459.8 pg/mL
CCL2/MCP-1 Concentration [1, 8]: 4425.5 pg/ml (2×) and 4528.4 pg/ml
CCL2/MCP-1 Concentration, Mean ([1]; PBMC + YY101 0.5 nM, no LPS): 4679.6 pg/mL
CCL2/MCP-1 Concentration ([1]; PBMC + YY101 0.5 nM, no LPS): 4528.4 pg/mL and 4830.8 pg/mL
CCL2/MCP-1 Concentration, Mean ([1]; PBMC + YY101 5 nM, no LPS): 4425.5 pg/mL
CCL2/MCP-1 Concentration ([1]; PBMC + YY101 5 nM, no LPS): 4425.5 pg/mL
CCL2/MCP-1 Concentration, Mean ([1]; PBMC + YY101 0.05 uM, no LPS): 5025.5 pg/mL
CCL2/MCP-1 Concentration ([1]; PBMC + YY101 0.05 uM, no LPS): 5782.0 pg/mL and 4269.1 pg/mL
CCL2/MCP-1 Concentration, Mean ([1]; PBMC + YY101 50 nM, no LPS): 4373.5 pg/mL
CCL2/MCP-1 Concentration ([1]; PBMC + YY101 50 nM, no LPS): 4321.5 pg/mL and 4425.5 pg/mL
CCL2/MCP-1 Concentration, Mean ([1]; PBMC + YY101 500 nM, no LPS): 4475.9 pg/mL
CCL2/MCP-1 Concentration ([1]; PBMC + YY101 500 nM, no LPS): 4321.5 pg/mL and 4630.2 pg/mL
LPS-induced CCL-2 (in words) ([1]; at as low as 5 μM, LPS 5 ug/mL 24 hrs): significantly reduced
IL-1 beta/IL-1F2 Concentration [2, 9]: 5806.3 pg/mL
IL-1 beta/IL-1F2 MFI [2, 9]: 105.2
IL-1 beta/IL-1F2 Concentration [2, 10]: 5975.0 pg/mL and 6004.7 pg/mL and 5439.3 pg/mL
IL-1 beta/IL-1F2 MFI [2, 10]: 108.0 and 108.5 and 99.0
IL-1 beta/IL-1F2 Concentration [2, 11]: 6004.8 pg/mL
IL-1 beta/IL-1F2 MFI [2, 11]: 108.5
IL-1 beta/IL-1F2 Concentration [2, 12]: 5736.8 pg/mL and 6511.1 pg/mL and 5766.6 pg/mL
IL-1 beta/IL-1F2 MFI [2, 12]: 104.0 and 117.0 and 104.5
IL-1 beta/IL-1F2 Concentration [2, 13]: 6044.5 pg/mL
IL-1 beta/IL-1F2 MFI [2, 13]: 109.2
IL-1 beta/IL-1F2 Concentration [2, 14]: 5736.8 pg/mL and 5975.0 pg/mL and 6421.7 pg/mL
IL-1 beta/IL-1F2 MFI [2, 14]: 104.0 and 108.0 and 115.5
IL-1 beta/IL-1F2 Concentration [2, 15]: 5875.9 pg/mL
IL-1 beta/IL-1F2 MFI [2, 15]: 106.3
IL-1 beta/IL-1F2 Concentration [2, 16]: 5498.8 pg/mL and 5558.3 pg/mL and 6570.7 pg/mL
IL-1 beta/IL-1F2 MFI [2, 16]: 100.0 and 101.0 and 118.0
IL-1 beta/IL-1F2 Concentration [2, 17]: 5608.2 pg/mL
IL-1 beta/IL-1F2 MFI [2, 17]: 101.8
IL-1 beta/IL-1F2 Concentration [2, 18]: 5201.4 pg/ml (2×) and 6421.7 pg/ml
IL-1 beta/IL-1F2 MFI [2, 18]: 95.0 (2×) and 115.5
IL-1 beta/IL-1F2 Concentration [2, 19]: 5578.2 pg/mL
IL-1 beta/IL-1F2 MFI [2, 19]: 101.3
IL-1 beta/IL-1F2 Concentration [2, 20]: 5260.9 pg/mL and 5915.4 pg/mL and 5558.3 pg/mL
IL-1 beta/IL-1F2 MFI [2, 20]: 96.0 and 107.0 and 101.0
IL-1 beta/IL-1F2 Concentration [2, 21]: 391.1 pg/mL
IL-1 beta/IL-1F2 MFI [2, 21]: 13.5
IL-1 beta/IL-1F2 Concentration [2, 22]: 362.0 pg/mL and 420.1 pg/mL
IL-1 beta/IL-1F2 MFI [2, 22]: 13.0 and 14.0
IL-1 beta/IL-1F2 Concentration [2, 23]: 391.1 pg/mL
IL-1 beta/IL-1F2 MFI [2, 23]: 13.5
IL-1 beta/IL-1F2 Concentration [2, 24]: 362.0 pg/mL and 420.1 pg/mL
IL-1 beta/IL-1F2 MFI [2, 24]: 13.0 and 14.0
IL-1 beta/IL-1F2 Concentration [2, 25]: 420.1 pg/mL
IL-1 beta/IL-1F2 MFI [2, 25]: 14.0
IL-1 beta/IL-1F2 Concentration [2, 26]: 420.1 pg/mL
IL-1 beta/IL-1F2 MFI [2, 26]: 14.0
IL-1 beta/IL-1F2 Concentration [2, 27]: 362.0 pg/mL
IL-1 beta/IL-1F2 MFI [2, 27]: 13.0
IL-1 beta/IL-1F2 Concentration [2, 28]: 362.0 pg/mL
IL-1 beta/IL-1F2 MFI [2, 28]: 13.0
IL-1 beta/IL-1F2 Concentration [2, 29]: 420.1 pg/mL
IL-1 beta/IL-1F2 MFI [2, 29]: 14.0
IL-1 beta/IL-1F2 Concentration [2, 30]: 420.1 pg/mL
IL-1 beta/IL-1F2 MFI [2, 30]: 14.0
